The values below come from article PMC12311865, “In Vitro Evaluation of the Potential Interactions of Zearalenone-14-sulfate and Zearalenone-14-glucuronide with Human Cytochrome P450 Enzymes, Organic Anion Transporting Polypeptides, and ATP-Binding Cassette Multidrug Transporters” (ACS Omega, 2025).

One data set deals with T1, MDR1 (Homo sapiens, UniProt P08183).
T1 construct: made in house; host or cells: Sf9 insect cells (baculovirus)
The data set can be described thus: MDR1-mediated NMQ vesicular transport (Sf9 membrane vesicles). The format is biochemical. The settings on record: human; 30 μM; NMQ 5 μM; read-out: inhibition of MDR1-mediated, ATP-dependent uptake of NMQ. Here is the method: Experiments were performed in insect membrane vesicles, as described previously. Briefly, human MDR1, BCRP, and MRP2 were expressed in Sf9 insect cells by baculoviruses. On the third day of infection, cells were collected and membrane vesicles were obtained by mechanical disruption and differential centrifugation. To get full activity for BCRP, the cholesterol levels of the vesicles were adjusted to the level of mammalian membranes. Vesicles were stored at −80 °C, and the total protein content of the preparations was measured by the Lowry method (used as a reference for the quantity). […] A 100 μL volume of fluorescence stabilizer was added to the samples (DMSO for LY, 0.1 M H2SO4 for NMQ, and 0.1 M NaOH for CDCF). Fluorescence of samples was measured by plate readers (Victor X3 and Enspire PerkinElmer; Waltham, MA) at appropriate wavelengths (filters in the Victor X3 reader were 405/535 nm for LY and 492/635 nm for CDCF; while in the Enspire reader, NMQ was measured at 360/430 nm excitation/emission wavelengths). ABC-related transport was calculated by subtracting passive uptake measured without Mg-ATP from values measured in the presence of Mg-ATP.

The target of a further data set is T2, CYP2C9 (Homo sapiens, UniProt P11712).
T2 construct: purchased Merck
T2 sequence (P11712 whole entry): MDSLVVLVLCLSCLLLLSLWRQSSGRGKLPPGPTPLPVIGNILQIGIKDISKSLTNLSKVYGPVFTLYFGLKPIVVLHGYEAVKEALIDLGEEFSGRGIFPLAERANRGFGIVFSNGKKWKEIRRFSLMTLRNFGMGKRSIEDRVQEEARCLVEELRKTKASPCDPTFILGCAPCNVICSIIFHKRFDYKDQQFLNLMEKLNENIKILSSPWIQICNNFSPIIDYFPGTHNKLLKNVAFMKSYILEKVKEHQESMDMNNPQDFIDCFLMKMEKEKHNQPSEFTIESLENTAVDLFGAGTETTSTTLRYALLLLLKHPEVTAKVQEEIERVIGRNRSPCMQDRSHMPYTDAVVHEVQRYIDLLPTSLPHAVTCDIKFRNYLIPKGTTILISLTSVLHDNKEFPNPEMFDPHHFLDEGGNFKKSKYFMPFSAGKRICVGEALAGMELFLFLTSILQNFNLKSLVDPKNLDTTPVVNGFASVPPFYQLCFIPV
Nature of the data set: in vitro. Format: biochemical. To be noted: human, pH 7.5. Here is the method:
Inhibitory actions of ZEN conjugates on CYP2C9 and CYP3A4 enzymes were examined employing CypExpress Cytochrome P450 human kits. , Briefly, incubates (200 μL) contained the substrate (5 μM; diclofenac for CYP2C9 and testosterone for CYP3A4), the CypExpress reagent (6 mg/mL of CYP2C9 kit or 15 mg/mL of CYP3A4 kit; also including the glucose-6-phosphate dehydrogenase enzyme), and the test compounds (each 20 μM) in 0.05 M potassium phosphate buffer (pH 7.5). CYP3A4 assay was supplemented with additional G6P and NADP^+ (both 400 μM). Enzyme assays were started with the addition of the enzyme. After 120 min (CYP2C9) or 180 min (CYP3A4) incubation at 700 rpm and 30 °C in a thermomixer, the reaction was stopped with 100 μL of ice-cold methanol. Then, the samples were centrifuged for 10 min at 14,000g and room temperature. The supernatants were gently removed and directly analyzed by HPLC (see Section ).
Diclofenac and 4′-hydroxydiclofenac (CYP2C9 assay) were quantified using the previously reported HPLC-UV assay, , without modification. Briefly, the isocratic elution, with 1.0 mL/min flow rate, was performed with orthophosphoric acid (6 mM) and acetonitrile (48:52 v/v %) mobile phase, applying a Security Guard (C8, 4.0 × 3.0 mm; Phenomenex, Torrance, CA) precolumn and a Mediterranea Sea8 (C8, 150 × 4.6 mm, 5 μm; Teknokroma, Barcelona, Spain) analytical column at room temperature (injected volume: 20 μL). Diclofenac and 4′-hydroxydiclofenac were detected at 275 nm.

T1 sequence (P08183 whole entry): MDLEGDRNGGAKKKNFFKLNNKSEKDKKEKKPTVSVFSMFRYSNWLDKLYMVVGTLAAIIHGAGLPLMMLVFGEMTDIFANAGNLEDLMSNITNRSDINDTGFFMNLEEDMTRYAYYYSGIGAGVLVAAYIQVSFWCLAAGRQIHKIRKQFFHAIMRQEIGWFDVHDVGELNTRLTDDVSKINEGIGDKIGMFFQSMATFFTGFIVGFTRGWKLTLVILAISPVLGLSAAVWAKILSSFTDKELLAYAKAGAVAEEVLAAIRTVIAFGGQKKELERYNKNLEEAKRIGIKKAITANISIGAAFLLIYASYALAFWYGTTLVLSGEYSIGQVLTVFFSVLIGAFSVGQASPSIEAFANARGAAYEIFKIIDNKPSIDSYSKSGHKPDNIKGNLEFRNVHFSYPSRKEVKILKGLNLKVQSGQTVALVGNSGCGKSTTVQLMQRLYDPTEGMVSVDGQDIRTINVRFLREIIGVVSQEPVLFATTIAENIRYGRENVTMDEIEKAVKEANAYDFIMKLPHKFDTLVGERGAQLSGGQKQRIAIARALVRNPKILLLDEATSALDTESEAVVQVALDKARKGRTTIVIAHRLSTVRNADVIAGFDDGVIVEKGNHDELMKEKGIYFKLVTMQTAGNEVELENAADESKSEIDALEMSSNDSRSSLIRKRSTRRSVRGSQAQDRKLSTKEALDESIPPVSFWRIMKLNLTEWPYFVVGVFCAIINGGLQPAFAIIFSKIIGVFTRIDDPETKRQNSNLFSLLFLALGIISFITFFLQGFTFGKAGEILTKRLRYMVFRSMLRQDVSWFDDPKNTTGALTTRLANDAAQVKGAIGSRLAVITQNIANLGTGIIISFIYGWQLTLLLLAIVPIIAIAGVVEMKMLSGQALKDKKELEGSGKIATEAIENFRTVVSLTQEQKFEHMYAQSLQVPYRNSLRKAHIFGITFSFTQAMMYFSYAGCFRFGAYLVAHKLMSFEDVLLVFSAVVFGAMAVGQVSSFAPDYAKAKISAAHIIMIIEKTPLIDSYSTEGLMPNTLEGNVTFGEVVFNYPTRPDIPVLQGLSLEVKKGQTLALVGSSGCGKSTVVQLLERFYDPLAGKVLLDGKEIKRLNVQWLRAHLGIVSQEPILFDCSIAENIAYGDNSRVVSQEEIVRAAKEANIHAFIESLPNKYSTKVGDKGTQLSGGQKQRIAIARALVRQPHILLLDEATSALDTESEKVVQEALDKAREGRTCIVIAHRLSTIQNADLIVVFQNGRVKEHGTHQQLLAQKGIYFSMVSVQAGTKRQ

In the case of `COc1ccc(CCN(C)CCCC(C#N)(c2ccc(OC)c(OC)c2)C(C)C)cc1OC` (centres unmarked) [verapamil, reference compound], the inhibition (as a rule, the percentage by which the read-out fell short of the control) at 10 min, 30 μM at MDR1 was 97%.
On to `Nc1ccc(S(=O)(=O)Nc2ccnn2-c2ccccc2)cc1` [sulfaphenazole, reference compound], for which the “inhibition of CYP2C9 (decrease in metabolite formation)” value on CYP2C9 is recorded as “more than 90%”.
